Data published in BindingDB's records for doi:10.1021/jm701266y (Lund University, 2008).

Biological target: Galectin-3 (Homo sapiens, UniProt P17931)
Test: Fluorescence Polarization Assay
Details: pH 7.2; 24 °C
Experimental: In fluorescence polarization measurements, a fluorescent probe was excited with plane-polarized light and the degree of polarization remaining in the emitted light is measured. When the probe is bound to protein, it rotates slower than when free, and the remaining fluorescence polarization is higher. The fluorescent anisotropy value for a probe-protein mixture is the average of the value for bound and free probe. For the direct binding asaay, the data (anisotropy, A in mA vs galectin concentration, [G] in uM) were fitted to a simplified formula to obtain Kd.

Galectin-3, sequence (P17931 whole entry): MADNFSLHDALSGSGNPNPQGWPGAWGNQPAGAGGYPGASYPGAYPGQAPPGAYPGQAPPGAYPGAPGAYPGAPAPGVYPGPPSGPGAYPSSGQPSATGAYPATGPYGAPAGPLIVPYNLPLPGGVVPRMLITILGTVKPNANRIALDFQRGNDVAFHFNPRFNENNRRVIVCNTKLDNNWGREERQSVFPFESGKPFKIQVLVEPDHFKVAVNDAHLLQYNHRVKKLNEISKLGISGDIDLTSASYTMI

Kd: 380 µM
Structure (SMILES): CS[C@@H]1O[C@H](CO)[C@H](O)[C@H](NC(=O)c2ccc(C)cc2)[C@H]1OCc1ccccc1 [N-[(2S,3R,4S,5R,6R)-3-(benzyloxy)-5-hydroxy-6-(hydroxymethyl)-2-(methylsulfanyl)oxan-4-yl]-4-methylbenzamide]
